# Data as given in ChEMBL document CHEMBL5365414, “Synthesis and activity of β-carboline antimalarials targeting the Plasmodium falciparum heat shock 90 protein” (Bioorg Med Chem Lett, 2023).
# pEC50, pIC50: −log10 of the molar value.
# Assays:
# Plasmodium berghei [1] = test: Antimalarial activity against luciferase expressing liver stage Plasmodium berghei ANKA infected in human Huh-7 cells assessed as reduction in parasite load at 10 uM measured after 44 hrs post infection by Bright-glo reagent based luciferase reporter assay relative to control; type: functional; parameters: scale not given: the % may be the effect or the level left
# Huh-7 [2] = test: Cytotoxicity against human Huh-7 cells infected with luciferase expressing liver stage Plasmodium berghei ANKA assessed as reduction in cell viability at 10 uM measured after 44 hrs post infection by Cell-TiterFluor viability assay relative to control; type: toxicity, cell-based; conditions: huh-7, 44 h
# HSP90 = molecular target: T1, HSP90 (Plasmodium falciparum 3D7, UniProt Q8IL32); test: Inhibition of recombinant his-tagged Plasmodium falciparum Hsp90 GHKL domain expressed in Escherichia coli BL21 (DE3) cells by bis-ANS binding assay
# T1 sequence (Q8IL32 whole entry): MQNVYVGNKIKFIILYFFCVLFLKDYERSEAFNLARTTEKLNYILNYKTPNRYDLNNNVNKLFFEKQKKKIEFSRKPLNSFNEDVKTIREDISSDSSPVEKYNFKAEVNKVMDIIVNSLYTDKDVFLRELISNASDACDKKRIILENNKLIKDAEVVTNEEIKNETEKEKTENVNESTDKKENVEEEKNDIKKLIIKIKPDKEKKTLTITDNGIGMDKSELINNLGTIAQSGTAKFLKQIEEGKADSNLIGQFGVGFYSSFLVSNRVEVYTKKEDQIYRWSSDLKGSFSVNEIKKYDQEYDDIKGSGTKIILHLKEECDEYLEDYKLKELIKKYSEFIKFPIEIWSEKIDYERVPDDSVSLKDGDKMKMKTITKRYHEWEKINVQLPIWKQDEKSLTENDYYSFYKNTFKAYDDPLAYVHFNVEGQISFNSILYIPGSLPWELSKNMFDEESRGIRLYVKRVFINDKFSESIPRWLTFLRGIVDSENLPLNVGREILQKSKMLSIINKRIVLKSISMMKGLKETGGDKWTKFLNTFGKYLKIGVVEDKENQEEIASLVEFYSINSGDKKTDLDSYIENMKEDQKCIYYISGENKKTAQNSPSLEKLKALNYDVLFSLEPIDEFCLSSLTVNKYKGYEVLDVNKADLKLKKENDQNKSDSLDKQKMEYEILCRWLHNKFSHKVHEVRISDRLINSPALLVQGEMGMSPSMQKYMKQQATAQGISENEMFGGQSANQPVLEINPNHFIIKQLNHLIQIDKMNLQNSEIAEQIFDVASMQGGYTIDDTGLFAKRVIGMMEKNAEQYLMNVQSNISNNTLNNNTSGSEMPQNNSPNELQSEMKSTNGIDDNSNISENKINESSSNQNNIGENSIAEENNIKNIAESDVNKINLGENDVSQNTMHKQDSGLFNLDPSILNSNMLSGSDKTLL
# Plasmodium berghei [3] = test: Antimalarial activity against luciferase expressing liver stage Plasmodium berghei ANKA infected in human Huh-7 cells assessed as reduction in parasite load measured after 44 hrs post infection by Bright-glo reagent based luciferase reporter assay; type: functional, organism-based; conditions: Huh-7, 44 h
# Huh-7 [4] = test: Cytotoxicity against human Huh-7 cells infected with luciferase expressing liver stage Plasmodium berghei ANKA assessed as reduction in cell viability upto 100 uM measured after 44 hrs post infection by Cell-TiterFluor viability assay; type: toxicity, cell-based; conditions: huh-7, 44 h
# Huh-7 [5] = test: Cytotoxicity against human Huh-7 cells infected with luciferase expressing liver stage Plasmodium berghei ANKA assessed as reduction in cell viability at high doses measured after 44 hrs post infection by Cell-TiterFluor viability assay; type: toxicity, cell-based; conditions: huh-7, 44 h
SMILES,Activity (Plasmodium berghei [1]) [%],other results
Clc1cccc(-c2nccc3c2[nH]c2ccccc23)c1,>50,–
c1ccc2c(c1)[nH]c1c(-c3ccsc3)nccc12,>50,Activity (Huh-7 [2]): 78%
CC1NCCc2c1[nH]c1ccc(Cl)cc21 (stereo not drawn),–,pIC50 (HSP90): 4.91
N#Cc1ccc(-c2nccc3c2[nH]c2ccccc23)cc1,>50,–
Clc1ccc2[nH]c3c(-c4ccccc4)nccc3c2c1,>50,–
O=C1C(O)=C([C@H]2CC[C@H](c3ccc(Cl)cc3)CC2)C(=O)c2ccccc21 [ATOVAQUONE],–,pEC50 (Plasmodium berghei [3]): 8.00
c1cncc(-c2nccc3c2[nH]c2ccccc23)c1,>50,–
Cc1cccc(-c2nccc3c2[nH]c2ccc(Cl)cc23)c1,41,–
c1ccc2c(c1)[nH]c1c(C3CC3)nccc12,>50,–
Clc1cccc(-c2nccc3c2[nH]c2ccc(Cl)cc23)c1,>50,–
COc1ccc(-c2nccc3c2[nH]c2ccccc23)cc1,>50,–
FC(F)(F)c1ccc(-c2nccc3c2[nH]c2ccccc23)cc1,5.8,Activity (Huh-7 [4]): Non-Toxic; pEC50 (Plasmodium berghei [3]): 5.28
COc1cccc(-c2nccc3c2[nH]c2ccc(Cl)cc23)c1,>50,Activity (Huh-7 [2]): 78%
FC(F)(F)c1cccc(-c2nccc3c2[nH]c2ccc(Cl)cc23)c1,15,Activity (Huh-7 [5]): Toxic; pEC50 (Plasmodium berghei [3]): 5.28
COc1ccc2c(c1)[nH]c1c(C3CC3)nccc12,>50,–
c1ccc2c(c1)[nH]c1cnccc12 [NORHARMANE],>50,–
COc1ccc2[nH]c3c(-c4ccccc4)nccc3c2c1,>50,–
